Source: patent publication US11780812B2, “Oxopyridine derivatives useful as aminocarboxymuconate semialdehyde decarboxylase (ACMSD) inhibitors” (OrsoBio, Inc., priority 2016, dated 2023)

Each compound was assayed against human ACMSD (Homo sapiens (Human), UniProt Q8TDX5) (assay: Human ACMSD-1 inhibitor assay (coupled 3-HAO/ACMSD, absorbance at 360 nm)). Settings: read-out: hACMSD IC50; human ACMSD 6 μg/ml, 50 mM MES pH 6.0, 28° C., four-parameter dose-response fit.
Sequence of human ACMSD (Q8TDX5 whole entry): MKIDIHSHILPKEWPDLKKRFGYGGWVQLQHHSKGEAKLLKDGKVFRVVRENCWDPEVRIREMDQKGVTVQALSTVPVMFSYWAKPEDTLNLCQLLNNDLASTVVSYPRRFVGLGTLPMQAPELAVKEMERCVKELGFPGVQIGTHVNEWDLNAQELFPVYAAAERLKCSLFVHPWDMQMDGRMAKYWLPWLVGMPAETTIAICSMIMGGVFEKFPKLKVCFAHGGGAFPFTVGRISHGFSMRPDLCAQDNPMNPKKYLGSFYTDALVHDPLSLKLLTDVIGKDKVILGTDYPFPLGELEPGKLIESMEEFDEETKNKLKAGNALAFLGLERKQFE
Protocol: A solution of 7.8 μg/ml 3-hydroxyanthranilate 3,4-dioxygenase (3-HAO) with protein dilution buffer (50 mM 4-Morpholineethanesulfonic acid “MES” pH 6.0) and a solution of 6 μg/ml Human 2-amino-3-carboxymuconate-6-semialdehyde decarboxylase (human ACMSD) with protein dilution buffer (50 mM MES pH 6.0) were prepared separately. A serial 2-fold dilution of test compounds, from 512 nM until 0.5 nM were prepared.
The plate was placed into a SpectraMax Plus 384 Microplate Reader, Molecular Devices with the temperature set to 28° C. The absorbance at 360 nm for 10 min with 10 seconds interval was monitored and recorded.
To a 96-well plate was added 50 μl of 6 μg/ml human ACMSD with series concentrations of the test compound. The absorbance was recorded at 360 nm for 10 min with 10 seconds interval. The data was analyzed in GraphPad Prism 6. A four-parameter dose-response curve was fitted. “Hill Slope” was constrained between −0.5 and −3, and such constrains was indicated when applied.

Row | SMILES | IC50
1 | COc1c(C(F)(F)F)c(C#N)c(SCC(=O)O)[nH]c1=O [Ex. 46, 2-(3-cyano-5-methoxy-6-oxo-4-(trifluoromethyl)-1,6-dihydropyridin-2-ylthio)acetic acid] | 8 nM
2 | Cc1c(C(F)(F)F)c(C#N)c(SCc2nnn[nH]2)[nH]c1=O [Ex. 47, 2-(((1H-tetrazol-5-yl)methyl)thio)-5-methyl-6-oxo-4-(trifluoromethyl)-1,6-dihydropyridine-3-carbonitrile] | 7 nM
3 | N#Cc1c(SCc2nnn[nH]2)[nH]c(=O)c(F)c1C(F)(F)F [Ex. 48, 2-((1H-tetrazol-5-yl)methylthio)-5-fluoro-6-oxo-4-(trifluoromethyl)-1,6-dihydropyridine-3-carbonitrile] | 2 nM
4 | N#Cc1c(-c2cccs2)cc(=O)[nH]c1SCc1cccc(-c2nnn[nH]2)c1 [Ex. 49, 2-((3-(1H-tetrazol-5-yl)benzyl)thio)-6-oxo-4-(thiophen-2-yl)-1,6-dihydropyridine-3-carbonitrile] | 6 nM
5 | N#Cc1c(-c2ccccc2)cc(=O)[nH]c1SCc1cccc(-c2nnn[nH]2)c1 [Ex. 50, 2-((3-(1H-tetrazol-5-yl)benzyl)thio)-6-oxo-4-phenyl-1,6-dihydropyridine-3-carbonitrile] | 3 nM
6 | O=c1cc(C(F)(F)F)cc(SCc2nnn[nH]2)[nH]1 [Ex. 52, 6-((1H-tetrazol-5-yl)methylthio)-4-(trifluoromethyl)pyridin-2(1H)-one] | 130 nM
7 | N#Cc1c(Cc2ccccc2)cc(=O)[nH]c1SCc1nn[nH]n1 [Ex. 53, 2-(((2H-tetrazol-5-yl)methyl)thio)-4-benzyl-6-oxo-1,6-dihydropyridine-3-carbonitrile] | 2 nM
8 | N#Cc1c(-c2ccsc2)cc(=O)[nH]c1SCc1cccc(-c2nnn[nH]2)c1 [Ex. 54, 2-(3-(1H-tetrazol-5-yl)benzylthio)-6-oxo-4-(thiophen-3-yl)-1,6-dihydropyridine-3-carbonitrile] | 9 nM
9 | Cc1cccc(-c2cc(=O)[nH]c(SCc3cccc(-c4nnn[nH]4)c3)c2C#N)c1 [Ex. 55, 2-((3-(1H-tetrazol-5-yl)benzyl)thio)-6-oxo-4-(m-tolyl)-1,6-dihydropyridine-3-carbonitrile] | 3 nM
10 | Cc1cc(=O)[nH]c(SCc2cccc(C(=O)O)c2)c1C#N [Ex. 56, 3-(((3-cyano-4-methyl-6-oxo-1,6-dihydropyridin-2-yl)thio)methyl)benzoic acid] | 6750 nM
11 | Cc1cc(=O)[nH]c(SCC(=O)O)c1C#N [reference compound] | 2990 nM
